Source: US8354398B2, “Substituted isoxazole compounds” (Bristol-Myers Squibb Company, priority 2009, dated 2013)
Structures can show the parent of a compound that is named as a salt.

How the values were obtained:
S1P1 [1] = biological target: T1, S1P1 (Homo sapiens, UniProt P21453); assay: S1P1 Binding Assay (33P-S1P ligand competition, membranes from CHO cells); set-up: expressed in transfected cells; host or cells: CHO cells; conditions: membranes of CHO cells expressing human S1P1; 0.03 nM 33P-S1P; 60 min room temperature
T1 sequence (P21453 whole entry): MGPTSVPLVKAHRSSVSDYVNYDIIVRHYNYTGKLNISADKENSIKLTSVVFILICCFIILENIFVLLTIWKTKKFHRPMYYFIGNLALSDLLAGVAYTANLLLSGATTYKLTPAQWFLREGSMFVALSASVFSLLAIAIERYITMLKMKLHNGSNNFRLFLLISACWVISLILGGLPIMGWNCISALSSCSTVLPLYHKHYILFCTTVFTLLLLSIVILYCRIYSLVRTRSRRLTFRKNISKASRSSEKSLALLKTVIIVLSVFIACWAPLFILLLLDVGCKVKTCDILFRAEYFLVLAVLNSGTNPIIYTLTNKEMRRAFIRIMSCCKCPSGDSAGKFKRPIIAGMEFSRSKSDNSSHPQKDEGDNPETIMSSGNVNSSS
Procedure: Membranes were prepared from CHO cells expressing human S1P1. Cells were dissociated in buffer containing 20 mM HEPES, pH 7.5, 50 mM NaCl, 2 mM EDTA and Protease Inhibitor cocktail (Roche), and disrupted on ice using the Polytron homogenizer. The homogenate was centrifuged at 20,000 rpm (48,000 g) and the supernatant was discarded. The membrane pellets were resuspended in buffer containing 50 mM HEPES, pH 7.5, 100 mM NaCl, 1 mM MgCl2, 2 mM EDTA and stored in aliquots at −80° C. after protein concentration determination.
Membranes (2 μg/well) and 0.03 nM final concentration of ^33P-S1P ligand (1 mCi/ml, American Radiolabeled Chemicals) were added to the compound plates. Binding was performed for 60 min at room temperature, terminated by collecting the membranes onto GF/B filter plates, and radioactivity was measured by TOPCOUNT®. The competition data of the test compounds over a range of concentrations was plotted as percentage inhibition of radioligand specific binding. The IC50 is defined as the concentration of competing ligand needed to reduce specific binding by 50%.
Compounds of the present invention and Comparative Compound A were tested in the S1P1 binding assay described hereinabove and the results rounded to two digits, shown in Table A were obtained. In some instances, the value is an average of multiple experiments where N is the number of experiments conducted that provided satisfactory dose response curves. When more than one batch of an example was tested, the value presented is from the batch which allowed a comparison of GTPγS S1P1 and GTPγS S1P3 in Method A (Data shown in Table B). Data was not averaged across different batches of an example compound.

S1P1 [2] = biological target: T1, S1P1; assay: Method A: Receptor [35S] GTPγS Binding Assay, membranes from S1P1/CHO cells; type: biochemical; set-up: expressed in transfected cells; host or cells: S1P1/CHO cells; conditions: for EC50: Method A, S1P1/CHO cell membranes; for GTPγS S1P3/S1P1 (Method A): ratio of GTPγS S1P3 EC50 to GTPγS S1P1 EC50, Method A
Procedure: (§1) Compounds were loaded in a 384 Falcon v-bottom plate (0.5 μl/well in a 3-fold dilution). Membranes prepared from S1P1/CHO cells or EDG3-Ga15-bla HEK293T cells were added to the compound plate (40 μl/well, final protein […]) with MULTIDROP®. [^35S]GTP (1250 Ci/mmol, Perkin Elmer) was diluted in assay buffer: 20 mM HEPES, pH7.5, 10 mM MgCl2, 150 mM NaCl, 1 mM EGTA, 1 mM DTT, 10 μM GDP, 0.1% fatty acid free BSA, and 10 mg/ml Saponin to 0.4 nM. 40 μl of the [^35S] GTP solution was added to the compound plate with a final concentration of 0.2 nM. The reaction was kept at room temperature for 45 min. At the end of incubation, all the mixtures in the compound plate were transferred to a 384 well FB filter plates via GPCR robot system. The filter plate was washed with water 4 times by using the modified manifold Embla plate washer and dried at 60° C. for 45 min. 30 μl of MicroScint 20 scintillation fluid was added to each well for counting at Packard TOPCOUNT®. EC50 is defined as the agonist concentration that corresponds to 50% of the Ymax (maximal response) obtained for each individual compound tested.
(§2) Compounds of the present invention and Comparative Compound A were tested in the Receptor [^35S] GTPγS Binding Assays (Method A) and Receptor [35S] In some instances, the value is an average of multiple experiments where N is the number of experiments conducted that provided satisfactory dose response curves. When more than one batch of an example was tested, the value presented is from a batch which allowed a comparison of GTPγS S1P1 and GTPγS S1P3 in which the most number of experiments were performed. Preferably, the same batch was examined in Method A and Method B. Data was not averaged across different batches of an example compound.

S1P3 = S1P3 (Homo sapiens, UniProt Q99500); assay: Method A: Receptor [35S] GTPγS Binding Assay, membranes from EDG3-Ga15-bla HEK293T cells; type: biochemical; set-up: expressed in transfected cells; host or cells: EDG3-Ga15-bla HEK293T cells; conditions: EDG3-Ga15-bla HEK293T cell membranes
Sequence of S1P3 (Q99500 whole entry): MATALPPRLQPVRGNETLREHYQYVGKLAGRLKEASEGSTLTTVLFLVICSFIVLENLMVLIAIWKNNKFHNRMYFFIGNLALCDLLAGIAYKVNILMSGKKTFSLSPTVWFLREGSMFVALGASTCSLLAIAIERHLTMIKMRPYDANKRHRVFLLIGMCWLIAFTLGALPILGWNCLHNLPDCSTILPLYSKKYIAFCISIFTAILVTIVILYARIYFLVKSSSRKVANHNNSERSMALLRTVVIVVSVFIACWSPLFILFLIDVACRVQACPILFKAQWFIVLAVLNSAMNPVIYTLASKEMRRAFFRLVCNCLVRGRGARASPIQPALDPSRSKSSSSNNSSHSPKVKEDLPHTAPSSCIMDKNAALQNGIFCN
Procedure: as §1, §2

S1P1 [3] = biological target: T1, S1P1; assay: Method B: Receptor [35S] GTPγS SPA Binding Assay, membranes from S1P1 transfected CHO cells; type: biochemical; set-up: expressed in transfected cells; host or cells: S1P1/CHO cells; conditions: Method B SPA; S1P1 transfected CHO cell membranes; NC = a satisfactory dose response curve was not obtained
Procedure: Membranes prepared from S1P1 or S1P3 transfected CHO cells (2 μg protein) were incubated in 96-well white plates (CORNING® 3693) with test compounds diluted in DMSO, in 50 μl of reaction mixture containing 7.5 μl WGA-PVT beads (20 mg/ml), and 5 μM GDP, 20 mM HEPES pH 7.4, 100 mM NaCl, 1 mM EDTA, 5 mM MgCl2, 10 μg/ml saponin, 0.1% BSA, and 1 μM leupeptin. The assay was initiated with the addition of 25 μl of 0.2 nM [^35S]-GTPγS (1250 Ci/mmol; NEN) in assay buffer. After 90 min incubation at room temperature, spin the plate at 1000 rpm for 5 min. The bound radionuclides were measured at TOPCOUNT®, expressed as % response relative to S1P (1 μM) activation. Data was analyzed using the four parameter logistic equation in Excel. The four parameters in the equation, Y=A+((B−A)/(1+((EC50/X)^D))), are described as following: A is the Y value (agonist activity) at the bottom plateau; B is the Y value at the top plateau; EC50 is the X value (agonist concentration) when the response is halfway between bottom and top; D is Hill coefficient. Curves were not generated for compounds having Ymax values were below 50%.
as §2

IC50 (S1P1 [1])	EC50 (S1P1 [2])	GTPγS S1P3/S1P1 (Method A) (S1P1 [2])	EC50 (S1P3)	EC50 (S1P1 [3])	SMILES
0.065 nM	0.26 nM	1,300	330 nM	0.16 nM	CCCCc1c(-c2nc(-c3ccc(CN4CC(C(=O)O)C4)cc3)no2)noc1-c1ccccc1 [Example 3, 1-(4-(5-(4-Butyl-5-phenylisoxazol-3-yl)-1,2,4-oxadiazol-3-yl)benzyl)-azetidine-3-carboxylic acid]
0.17 nM	0.7 nM	670	470 nM	0.58 nM	CC(C)Cc1c(-c2nc(-c3ccc(CN4CC(C(=O)O)C4)cc3)no2)noc1-c1ccccc1 [Example 4, 1-(4-(5-(4-Isobutyl-5-phenylisoxazol-3-yl)-1,2,4-oxadiazol-3-yl)benzyl)-azetidine-3-carboxylic acid]
0.14 nM	5.3 nM	320	1700 nM	–	CCc1c(-c2nc(-c3ccc(CN4CC(C(=O)O)C4)c(Br)c3)no2)noc1-c1ccccc1 [Example 5, 1-(2-Bromo-4-(5-(4-ethyl-5-phenylisoxazol-3-yl)-1,2,4-oxadiazol-3-yl)benzyl)azetidine-3-carboxylic acid]
0.043 nM	5.6 nM	75	420 nM	0.22 nM	O=C(O)C1CN(Cc2ccc(-c3noc(-c4noc(-c5ccccc5)c4C4CC4)n3)cc2)C1 [Example 6, 1-(4-(5-(4-Cyclopropyl-5-phenylisoxazol-3-yl)-1,2,4-oxadiazol-3-yl)benzyl)-azetidine-3-carboxylic acid, 2,2,2-trifluoroacetic acid salt]
0.09 nM	3.7 nM	140	520 nM	–	O=C(O)C1CN(Cc2ccc(-c3noc(-c4noc(-c5ccccc5)c4CCC(F)(F)F)n3)cc2)C1 [Example 8, 1-(4-(5-(5-Phenyl-4-(3,3,3-trifluoropropyl)isoxazol-3-yl)-1,2,4-oxadiazol-3-yl)benzyl)azetidine-3-carboxylic acid, 2,2,2-trifluoroacetic acid salt]
0.094 nM	1.9 nM	578	1100 nM	–	COC(=O)c1c(-c2ccccc2)noc1-c1nc(-c2ccc(CN3CC(C(=O)O)C3)cc2)no1 [Example 13, 1-(4-(5-(4-(Methoxycarbonyl)-3-phenylisoxazol-5-yl)-1,2,4-oxadiazol-3-yl)benzyl)azetidine-3-carboxylic acid, 2,2,2-trifluoroacetic acid salt]
6.5 nM	29 nM	175	5100 nM	–	O=C(NCC(F)(F)F)c1c(-c2ccccc2)noc1-c1nc(-c2ccc(CN3CC(C(=O)O)C3)cc2)no1 [Example 15, 1-(4-(5-(3-Phenyl-4-(2,2,2-trifluoroethylcarbamoyl)isoxazol-5-yl)-1,2,4-oxadiazol-3-yl)benzyl)azetidine-3-carboxylic acid, 2,2,2-trifluoroacetic acid salt]
40 nM	112 nM	18	2050 nM	–	O=C(O)c1c(-c2ccccc2)noc1-c1nc(-c2ccc(CN3CC(C(=O)O)C3)cc2)no1 [Example 16, 5-(3-(4-((3-Carboxyazetidin-1-yl)methyl)phenyl)-1,2,4-oxadiazol-5-yl)-3-phenylisoxazole-4-carboxylic acid]
0.15 nM	0.56 nM	3,900	2200 nM	–	CC(C)Cc1onc(-c2nc(-c3ccc(CN4CC(C(=O)O)C4)cc3)no2)c1C(F)(F)F [Example 20, 1-(4-(5-(5-Isobutyl-4-(trifluoromethyl)isoxazol-3-yl)-1,2,4-oxadiazol-3-yl)benzyl)-azetidine-3-carboxylic acid]
0.32 nM	0.32 nM	3,500	1100 nM	–	O=C(O)C1CN(Cc2ccc(-c3noc(-c4onc(-c5ccccc5)c4C(F)(F)F)n3)cc2F)C1 [Example 21, 1-(2-Fluoro-4-(5-(3-phenyl-4-(trifluoromethyl)isoxazol-5-yl)-1,2,4-oxadiazol-3-yl)benzyl)azetidine-3-carboxylic acid]
0.55 nM	0.52 nM	3,000	1600 nM	–	Cc1cc(-c2noc(-c3onc(-c4ccccc4)c3C(F)(F)F)n2)ccc1CN1CC(C(=O)O)C1 [Example 22, 1-(2-methyl-4-(5-(3-phenyl-4-(trifluoromethyl)isoxazol-5-yl)-1,2,4-oxadiazol-3-yl)benzyl)azetidine-3-carboxylic acid]
0.26 nM	1.9 nM	4,400	8300 nM	–	O=C(O)C1CN(Cc2ccc(-c3noc(-c4onc(-c5ccccc5)c4C(F)(F)F)n3)c(Cl)c2)C1 [Example 23, 1-(3-chloro-4-(5-(3-phenyl-4-(trifluoromethyl)isoxazol-5-yl)-1,2,4-oxadiazol-3-yl)benzyl)azetidine-3-carboxylic acid]
1.56 nM	6.4 nM	4,900	31000 nM	–	O=C(O)C1CN(Cc2ccc(-c3noc(-c4onc(-c5ccccc5)c4C(F)(F)F)n3)c(C(F)(F)F)c2)C1 [Example 24, 1-(4-(5-(3-phenyl-4-(trifluoromethyl)isoxazol-5-yl)-1,2,4-oxadiazol-3-yl)-3-(trifluoromethyl)benzyl)azetidine-3-carboxylic acid]
0.44 nM	9.2 nM	371	3400 nM	–	O=C(O)C1CN(Cc2ccc(-c3noc(-c4noc(-c5ccccc5)c4-c4ccccc4)n3)c(C(F)(F)F)c2)C1 [Example 25, 1-(4-(5-(4,5-Diphenylisoxazol-3-yl)-1,2,4-oxadiazol-3-yl)-3-(trifluoromethyl)benzyl)azetidine-3-carboxylic acid, 2,2,2-trifluoroacetic acid salt]
